The target of data set [1] is 2009 H1N1 influenza A endonuclease (PAN domain) (Influenza A virus, UniProt C3W5S0). Put plainly: biochemical. The note with it: fluorescence change over time at 37 degrees Celsius. On the set-up: species or system Influenza A (pandemic 2009 H1N1).
In data set [2] the target is T1, HIV-1 integrase (Human immunodeficiency virus type 1 group M subtype B, UniProt P12497). Briefly: LEDGF independent integration (strand transfer) assay. In kind it is biochemical. The note with it: 500 nM integrase, 32P-labled recessed end 19-mer U5 DNA, 37° C. 1 hour. As to the method:
(§1) The two metal binding motif of these compounds allows for potential cross reactivity with other drug targets with two metal containing active sites. Compounds were tested for LEDGF independent integration (strand transfer) and 3′ processing based on established protocols (Kessl et al.; J Biol Chem, 2012; 287:16801-16811).
(§2) The 3′-processing was assayed using blunt ended ^32P-labled 21-mer synthetic double stranded U5 DNA. The strand transfer assay used ^32P-labled recessed end 19-mer synthetic double stranded U5 DNA. 500 nM integrase was pre-incubated with compound for 30 minutes on ice in 50 mM MOPS (pH 7.2) buffer containing 2 mM β-mercaptoethanol, 50 mM NaCl and 10 mM MgCl2. 50 nM DNA substrate was added to the reaction and incubated at 37° C. for 1 hour when the reactions were stopped with 50 mM EDTA. The reaction products are subjected to denaturing polyacrylamide gel electrophoresis and visualized using a Storm 860 Phosphorimager (Amersham Biosciencs). The ICs50s of representative compounds of formula (I) as detected with a LEDGF independent integration assay or a 3′-processing assay are shown in the following table.

Data set [3] deals with T1, HIV-1 integrase. Put plainly: 3′-processing assay. The data set is classed as biochemical. As to conditions: 500 nM integrase, blunt ended 32P-labled 21-mer U5 DNA, 37° C. 1 hour; read-out: IC50 (μM) 3′-Process. As for the experimental part: as §1, §2
Setting [4] is: IC50 (uM) using either 500 nM or 50 nM enzyme.
The mark [5] stands for this setting: 500 nM or 50 nM enzyme, read-out: IC50 (uM) using either 500 nM or 50 nM enzyme.

“And” between values parts separate entries of the source, which are not always exact repeats. Equal entries are not always repeated. Where two headings read alike, the source gives them in different places.

For orientation: IC50 means the concentration needed to halve the response being measured. A word on the melting point: it is the temperature, or range, at which the solid turns liquid.

The molecule `O=c1[nH]c(-c2ccccc2)c(-c2ccccc2)cc1O` [5,6-bis(phenyl)-3-hydroxypyridin-2(1H)-one] yielded a melting point of 249 to 255 °C. Also, the IC50 in data set [1] (setting [4]) was 0.12 µM and 0.047 µM.
Turning to `O=C(O)c1cccc(-c2c[nH]c(=O)c(O)c2)c1` [drawing 240], the values for the IC50 against HIV-1 integrase [2] and on HIV-1 integrase [3] were 20.5 ± 1.3 µM and 22.2 ± 2.5 µM, respectively.
In the case of `N#Cc1ccc(-c2cc(O)c(=O)[nH]c2-c2ccc(F)cc2)cc1` [5-(4-Cyanophenyl)-6-(4-fluorophenyl)-3-hydroxypyridin-2(1H)-one], the melting point was in the range of 255 to 257 °C. In data set [1] (setting [4]), this molecule had an IC50 of 0.136 µM.
For `O=c1[nH]cc(-c2ccccc2)cc1O` [5-Phenyl-3-hydroxypyridin-2(1H)-one], in that order: 175 to 177 °C and over 10 µM.
For the molecule `N#Cc1ccc(-c2[nH]c(=O)c(O)cc2-c2ccc(F)cc2)cc1` [5-(4-Fluorophenyl)-6-(4-cyanophenyl)-3-hydroxypyridin-2(1H)-one], the melting point lay in the range of 255 to 258 °C. In data set [1] (setting [4]), this molecule showed an IC50 of 0.054 µM.
As to `O=c1[nH]c(-c2ccc(-c3nnn[nH]3)cc2)ccc1O` [drawing 241], the results for the IC50 against HIV-1 integrase [2] and at HIV-1 integrase [3] were 23.7 ± 2.7 µM and 12.6 ± 3.2 µM, respectively.
Take `O=c1[nH]ncc(-c2ccc(F)cc2)c1O` [5-(4-Fluorophenyl)-4-hydroxypyridazin-3(2H)-one]: the melting point lay within 274 to 276 °C. This molecule also gave an IC50 in data set [1] (setting [4]) of over 200 µM.
Take `O=c1[nH]cnc(-c2ccc(F)cc2)c1O` [6-(4-Fluorophenyl)-5-hydroxypyrimidin-4(3H)-one]: the melting point was in the range of 285 to 287 °C. This molecule also registered an IC50 in data set [1] (setting [4]) of 193 µM.
Molecule `N#Cc1ccc(-c2cc(O)c(=O)[nH]n2)cc1` [4-(5-Hydroxy-6-oxo-1,6-dihydropyridazin-3-yl)benzonitrile] showed a melting point of 305 to 307 °C. In addition, in data set [1] (setting [5]), the IC50 is 9.3 µM.
Regarding `N#Cc1ccc(-c2cc(O)c(=O)[nH]c2-c2ccc(C#N)cc2)cc1` [5,6-bis(4-Cyanophenyl)-3-hydroxypyridin-2(1H)-one], the melting point lay within 159 to 162 °C. In data set [1] (setting [4]), this molecule showed an IC50 of 0.1 µM.
As to `O=C(O)c1ccc(-c2c[nH]c(=O)c(O)c2)cc1` [drawing 242], the values for the IC50 against HIV-1 integrase [2] and on HIV-1 integrase [3] were 50.7 ± 2.9 µM and 7.4 ± 1.6 µM, respectively.
Molecule `O=c1[nH]c(-c2ccc(F)cc2)ncc1O` [2-(4-Fluorophenyl)-5-hydroxypyrimidin-4(3H)-one] yielded a melting point of 252 to 254 °C. Further, in data set [1] (setting [5]), the IC50 was 0.58 µM.
As to `O=c1[nH]c(-c2ccc(-c3nnn[nH]3)cc2)c(-c2ccc(-c3nnn[nH]3)cc2)cc1O` [5,6-bis[4-(1H-Tetrazol-5-yl)phenyl]-3-hydroxypyridin-2(1H)-one], the melting point lay in the range of 180 to 182 °C. The IC50 in data set [1] (setting [4]) was found to be 0.29 µM.
In the case of `O=c1[nH]c(-c2ccc(F)cc2)c(-c2ccc(-c3nnn[nH]3)cc2)cc1O` [5-[4-(1H-Tetrazol-5-yl)phenyl]-6-(4-fluorophenyl)-3-hydroxypyridin-2(1H)-one], the melting point lay in the range of 185 to 188 °C.
Take `O=c1[nH]nc(-c2ccc(F)cc2)cc1O` [6-(4-Fluorophenyl)-4-hydroxypyridazin-3(2H)-one]: the melting point was in the range of 281 to 283 °C. Moreover, the concentration for half-maximal inhibition (IC50) in data set [1] (setting [5]) stood at 6 µM.
In the case of `O=c1[nH]c(-c2ccc(-c3nnn[nH]3)cc2)c(-c2ccc(F)cc2)cc1O` [drawing 238], the IC50 against HIV-1 integrase [2] was found to be 11.7 ± 1.5 µM; on HIV-1 integrase [3] it was 20.8 ± 5.8 µM.
For the molecule `O=c1[nH]c(-c2ccc(O)c(O)c2)ccc1O` [drawing 237], the IC50 against HIV-1 integrase [2] was 6 ± 0.8 µM; on HIV-1 integrase [3], 8.2 ± 2.5 µM.
Turning to `O=c1[nH]cc(-c2ccc(F)cc2)cc1O` [drawing 239], the IC50 at HIV-1 integrase [2] is 15.7 ± 0.9 µM; on HIV-1 integrase [3], 11.6 ± 1.6 µM.

(Values after patent US9573938B2 (priority 2012, dated 2017).)
